Test results taken from PubChem BioAssay (NCI).
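Exposure lasted 48 hours, with cells grown in 96-well plates and compounds tested at five concentrations. TGI denotes the concentration required for complete inhibition of growth.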

Assays:
Test in all cases: inhibition of tumour cell growth, NCI panel, 48 h
NCI-H226 lung = system: NCI-H226 lung
MOLT-4 leukemia = system: MOLT-4 leukemia
HL-60(TB) leukemia = system: HL-60(TB) leukemia
HCC-2998 colon = system: HCC-2998 colon
BT-549 breast = system: BT-549 breast
U251 CNS = system: U251 CNS
SNB-19 CNS = system: SNB-19 CNS
NCI-H522 lung = system: NCI-H522 lung
A549 NSCLC = system: A549 NSCLC
MCF7 breast = system: MCF7 breast
DU-145 prostate = system: DU-145 prostate
HCT-116 colon = system: HCT-116 colon
IGROV1 ovarian = system: IGROV1 ovarian
HCT-15 colon = system: HCT-15 colon
SF-268 CNS = system: SF-268 CNS
UACC-257 melanoma = system: UACC-257 melanoma
SR leukemia = system: SR leukemia
A498 renal = system: A498 renal
CAKI-1 renal = system: CAKI-1 renal
EKVX NSCLC = system: EKVX NSCLC
SNB-75 CNS = system: SNB-75 CNS
HOP-92 NSCLC = system: HOP-92 NSCLC
SF-295 CNS = system: SF-295 CNS
UO-31 renal = system: UO-31 renal
MDA-N = system: MDA-N
KM12 colon = system: KM12 colon
HOP-62 NSCLC = system: HOP-62 NSCLC
PC-3 prostate = system: PC-3 prostate
LOX IMVI melanoma = system: LOX IMVI melanoma
ACHN renal = system: ACHN renal
OVCAR-4 ovarian = system: OVCAR-4 ovarian
SK-OV-3 ovarian = system: SK-OV-3 ovarian
786-0 renal = system: 786-0 renal
OVCAR-8 ovarian = system: OVCAR-8 ovarian
SW-620 colon = system: SW-620 colon
CCRF-CEM leukemia = system: CCRF-CEM leukemia
SK-MEL-5 melanoma = system: SK-MEL-5 melanoma
SN12C renal = system: SN12C renal
NCI-H23 lung = system: NCI-H23 lung
UACC-62 melanoma = system: UACC-62 melanoma
MALME-3M melanoma = system: MALME-3M melanoma
COLO 205 colon = system: COLO 205 colon
OVCAR-5 ovarian = system: OVCAR-5 ovarian
NCI-H460 lung = system: NCI-H460 lung
TK-10 renal = system: TK-10 renal
MDA-MB-231 breast = system: MDA-MB-231 breast
RPMI-8226 leukemia = system: RPMI-8226 leukemia
OVCAR-3 ovarian = system: OVCAR-3 ovarian
K-562 leukemia = system: K-562 leukemia
NCI/ADR-RES ovarian = system: NCI/ADR-RES ovarian
MDA-MB-435 = system: MDA-MB-435
SK-MEL-28 melanoma = system: SK-MEL-28 melanoma
SK-MEL-2 melanoma = system: SK-MEL-2 melanoma
HS 578T breast = system: HS 578T breast
M14 melanoma = system: M14 melanoma

Measured: TGI

COC(=O)C1=C(C(=O)OC)C(C(=O)c2ccc(Br)cc2)N2N=C(c3ccc(Cl)cc3)C=CC12 (stereo not given)
> 100 µM: NCI-H226 lung | MOLT-4 leukemia | HL-60(TB) leukemia | HCC-2998 colon | BT-549 breast | U251 CNS | SNB-19 CNS | NCI-H522 lung | A549 NSCLC | MCF7 breast | DU-145 prostate | HCT-116 colon | IGROV1 ovarian | HCT-15 colon | SF-268 CNS | UACC-257 melanoma | SR leukemia | A498 renal | CAKI-1 renal | EKVX NSCLC | SNB-75 CNS | HOP-92 NSCLC | SF-295 CNS | UO-31 renal | MDA-N | KM12 colon | HOP-62 NSCLC | PC-3 prostate | LOX IMVI melanoma | ACHN renal | OVCAR-4 ovarian | SK-OV-3 ovarian | 786-0 renal | OVCAR-8 ovarian | SW-620 colon | CCRF-CEM leukemia | SK-MEL-5 melanoma | SN12C renal | NCI-H23 lung | UACC-62 melanoma | MALME-3M melanoma | COLO 205 colon | OVCAR-5 ovarian | NCI-H460 lung | TK-10 renal | MDA-MB-231 breast | RPMI-8226 leukemia | OVCAR-3 ovarian | K-562 leukemia | NCI/ADR-RES ovarian | MDA-MB-435 | SK-MEL-28 melanoma | SK-MEL-2 melanoma | HS 578T breast | M14 melanoma
